Tested on: ASPS-1 complex tumor spheroids, viability
Test: Anticancer human tumor ASPS-1 cell line growth inhibition;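 further: spheroids exposed to agents for 7 days after 3 days of growth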;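 on viability, T/C: 100% = DMSO vehicle treated spheroids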
Conditions: for IC50: curve of first compound; for viability, T/C: stronger effect = lower value
Method in brief: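 Single agents and combinations were tested on spheroids built from tumor cells plus HUVEC and hMSC, at half-log dilutions starting at or near clinical Cmax, else 10 microM; final DMSO 0.25% (v/v).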

[1] = second compound 1 µM, first compound 0.0316 µM
[2] = second compound 1 µM, first compound 0.1 µM
[3] = second compound 1 µM, first compound 0.316 µM
[4] = second compound 1 µM, first compound 1 µM
[5] = second compound 1 µM, first compound 3.16 µM
[6] = second compound 1 µM, first compound 10 µM
[7] = second compound 3.16 µM, first compound 0.0316 µM
[8] = second compound 3.16 µM, first compound 0.1 µM
[9] = second compound 3.16 µM, first compound 0.316 µM
[10] = second compound 3.16 µM, first compound 1 µM
[11] = second compound 3.16 µM, first compound 3.16 µM
[12] = second compound 3.16 µM, first compound 10 µM
[13] = second compound 10 µM, first compound 0.0316 µM
[14] = second compound 10 µM, first compound 0.1 µM
[15] = second compound 10 µM, first compound 0.316 µM
[16] = second compound 10 µM, first compound 1 µM
[17] = second compound 10 µM, first compound 3.16 µM
[18] = second compound 10 µM, first compound 10 µM
[19] = second compound 31.6 µM, first compound 0.0316 µM
[20] = second compound 31.6 µM, first compound 0.1 µM
[21] = second compound 31.6 µM, first compound 0.316 µM
[22] = second compound 31.6 µM, first compound 1 µM
[23] = second compound 31.6 µM, first compound 3.16 µM
[24] = second compound 31.6 µM, first compound 10 µM
[25] = second compound 100 µM, first compound 0.0316 µM
[26] = second compound 100 µM, first compound 0.1 µM
[27] = second compound 100 µM, first compound 0.316 µM
[28] = second compound 100 µM, first compound 1 µM
[29] = second compound 100 µM, first compound 3.16 µM
[30] = second compound 100 µM, first compound 10 µM

**Q.** What does the source list for CC1COCCN1c1cc(-c2ccnn2C)c2ccnc(-c3ccn[nH]3)c2n1 (stereo not given) + Cn1nnc2c(C(N)=O)ncn2c1=O?
**A.** IC50 (second compound 1 µM): 0.224 µM; IC50 (second compound 3.16 µM): < 0.0316 µM; IC50 (second compound 10 µM): < 0.0316 µM; IC50 (second compound 31.6 µM): < 0.0316 µM; IC50 (second compound 100 µM): < 0.0316 µM; viability, T/C [1]: 72.3%; viability, T/C [2]: 59.2%; viability, T/C [3]: 46.6%; viability, T/C [4]: 41.1%; viability, T/C [5]: 46.1%; viability, T/C [6]: 43.9%; viability, T/C [7]: 38.5%; viability, T/C [8]: 44%; viability, T/C [9]: 42.2%; viability, T/C [10]: 41.6%; viability, T/C [11]: 43%; viability, T/C [12]: 50.2%; viability, T/C [13]: 42.4%; viability, T/C [14]: 39.4%; viability, T/C [15]: 35.5%; viability, T/C [16]: 38.1%; viability, T/C [17]: 42.5%; viability, T/C [18]: 52.4%; viability, T/C [19]: 37.6%; viability, T/C [20]: 31.1%; viability, T/C [21]: 31.7%; viability, T/C [22]: 32.6%; viability, T/C [23]: 42.2%; viability, T/C [24]: 48.3%; viability, T/C [25]: 24.9%; viability, T/C [26]: 22.5%; viability, T/C [27]: 20.4%; viability, T/C [28]: 23.6%; viability, T/C [29]: 29.6%; viability, T/C [30]: 42%

**Q.** What does the source list for COc1cc(C)[nH]c(=O)c1CN1CCc2c(Cl)cc(C(OC)C3COC3)c(Cl)c2C1=O (stereo not given) + Cn1nnc2c(C(N)=O)ncn2c1=O?
**A.** IC50 (second compound 1 µM): > 10 µM; IC50 (second compound 3.16 µM): > 10 µM; IC50 (second compound 10 µM): > 10 µM; IC50 (second compound 31.6 µM): > 10 µM; IC50 (second compound 100 µM): > 10 µM; viability, T/C [1]: 107%; viability, T/C [2]: 104%; viability, T/C [3]: 99.2%; viability, T/C [4]: 98.6%; viability, T/C [5]: 94.7%; viability, T/C [6]: 96.7%; viability, T/C [7]: 103%; viability, T/C [8]: 101%; viability, T/C [9]: 103%; viability, T/C [10]: 104%; viability, T/C [11]: 103%; viability, T/C [12]: 90.8%; viability, T/C [13]: 75.3%; viability, T/C [14]: 83.9%; viability, T/C [15]: 94.9%; viability, T/C [16]: 86.8%; viability, T/C [17]: 91%; viability, T/C [18]: 81.2%; viability, T/C [19]: 80.4%; viability, T/C [20]: 82.5%; viability, T/C [21]: 82.5%; viability, T/C [22]: 84.1%; viability, T/C [23]: 82.7%; viability, T/C [24]: 75.2%; viability, T/C [25]: 81.8%; viability, T/C [26]: 78.6%; viability, T/C [27]: 72.9%; viability, T/C [28]: 72.7%; viability, T/C [29]: 69%; viability, T/C [30]: 70%

**Q.** Which results are given for COc1ccc([C@@H](O)c2cc(-c3ncnc4cc(N5CCOCC5)ccc34)c(F)cc2Cl)nn1 + Cn1nnc2c(C(N)=O)ncn2c1=O?
**A.** IC50 (second compound 1 µM): 9.75 µM; IC50 (second compound 3.16 µM): > 10 µM; IC50 (second compound 10 µM): 6.72 µM; IC50 (second compound 31.6 µM): 2.61 µM; IC50 (second compound 100 µM): 1.73 µM; viability, T/C [1]: 107%; viability, T/C [2]: 103%; viability, T/C [3]: 106%; viability, T/C [4]: 101%; viability, T/C [5]: 92%; viability, T/C [6]: 48.4%; viability, T/C [7]: 103%; viability, T/C [8]: 102%; viability, T/C [9]: 105%; viability, T/C [10]: 99.8%; viability, T/C [11]: 75.7%; viability, T/C [12]: 53.1%; viability, T/C [13]: 92%; viability, T/C [14]: 94.9%; viability, T/C [15]: 99%; viability, T/C [16]: 79.2%; viability, T/C [17]: 69.8%; viability, T/C [18]: 40.3%; viability, T/C [19]: 82.7%; viability, T/C [20]: 83.7%; viability, T/C [21]: 77.2%; viability, T/C [22]: 67.7%; viability, T/C [23]: 46.2%; viability, T/C [24]: 33.8%; viability, T/C [25]: 82.1%; viability, T/C [26]: 67.6%; viability, T/C [27]: 64.7%; viability, T/C [28]: 57.1%; viability, T/C [29]: 44.5%; viability, T/C [30]: 33.2%
